# Results as given in patent US20060025458A1, “Alkylammonium compounds as antifungal and antitrypanosomal agents” (University of Connecticut, priority 2004, published 2006).
# What was measured:
# [1] = system: endogenous PtdSer decarboxylase activity; test: Serine labeling: PtdEtn formation from PtdSer in P. falciparum-infected erythrocytes; type: cell-based, Plasmodium falciparum
# Method: FIG. 10B. Effect of G25 on PtdEtn and PtdSer synthesis from serine. 5-6×10^7 synchronized P. falciparum-infected erythrocytes (7% trophozoite stage) were pre-incubated at 4% haematocrit for 1 h in RPMI-based medium containing the indicated concentration of G25 before adding 10 μM [^14C]-serine (57 mCi/mmol). After incubation at 37° C. for 3 h, the cellular lipids were extracted and fractionated on TLC plates for quantification of radioactivity in PtdSer (black diamonds), and PtdEtn (white circles).
# (§1) Labeling Studies and Phospholipid Analysis in P. falciparum: Nigerian strains of P. falciparum were asexually cultured in the presence of basic medium (RPMI 1640 supplemented with 25 mM Hepes, pH 7.4) and 10% AB^+ human serum (Trager and Jensen, 1976). Parasite synchronization was obtained with three successive 5% sorbitol treatments (Lambros and Vanderberg, 1979). Synchronized P. falciparum-infected erythrocytes (7-10% parasitemia, trophozoites) were pre-incubated for 1 hour at 37° C. at 4% hematocrit in 2 ml (final volume) basic medium in the absence or the presence of different concentrations of the compound G25. The appropriate radioactive precursor of lipid metabolism was added followed by further 3 h of incubation. […] The silica gel of the lipid spots were scraped directly into scintillation vials containing 3 ml of liquid-scintillation fluid and counted in a Beckman LS 5000 spectrophotometer. The amount of labeled precursors incorporated into cellular lipids (nmol×10^7 cell^−1×h^−1) was computed on the basis of radioactivity incorporated into lipids and the specific activity of the precursors in the incubation medium.
# The possible inhibition of PtdSer decarboxylase activity in P. falciparum by G25 was investigated. P. falciparum-infected erythrocytes were labeled with radiolabeled serine, which is readily incorporated into PtdSer, in the presence or absence of increasing concentrations of G25, and the effect of this compound on the parasite endogenous PtdSer decarboxylase activity was measured by following the formation of PtdEtn from PtdSer (FIG. 10B). […]
# [2] = molecular target: T1, recombinant PtdSer decarboxylase PfPsd1 (Plasmodium falciparum, UniProt Q9GPP8); test: PtdSer decarboxylase assay with recombinant enzyme; type: biochemical; settings: increasing concentrations of G25
# T1 construct: made in house
# T1 sequence (Q9GPP8 1-362): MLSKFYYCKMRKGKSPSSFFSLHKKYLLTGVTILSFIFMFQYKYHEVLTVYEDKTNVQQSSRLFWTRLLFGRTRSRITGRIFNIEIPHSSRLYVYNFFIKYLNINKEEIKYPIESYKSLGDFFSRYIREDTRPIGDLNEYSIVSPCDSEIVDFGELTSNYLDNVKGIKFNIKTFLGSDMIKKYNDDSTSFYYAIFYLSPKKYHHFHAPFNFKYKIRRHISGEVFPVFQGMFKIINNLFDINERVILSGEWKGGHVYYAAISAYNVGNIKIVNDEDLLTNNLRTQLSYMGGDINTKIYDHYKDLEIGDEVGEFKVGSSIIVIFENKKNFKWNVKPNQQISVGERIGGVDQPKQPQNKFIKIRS
# Method: FIG. 11A. Effect of G25 on the activity of purified recombinant PfPsd1 enzyme. PfPsd1 activity was determined as described in Materials and Methods by measuring the amount of [^14C]-PtdEtn formed from PtdSer. TLC analysis of PfPsd1-mediated conversion of PtdSer into PtdEtn in the absence and presence of increasing concentrations of G25 was performed.
# FIG. 11B. Values are means±standard deviation of triplicate determination of two independent experiments.
# Recombinant P. falciparum PtdSer decarboxylase was purified as described by Baunaure and colleagues (Baunaure, et al., 2004) The assay mixture (0.3 ml) contained 0.1 M potassium phosphate buffer (pH 6.8), 0.06% Triton X-100 (w/v), 200 μM L-[dipalmitoyl]phosphatidyl[3-^14C]-serine (1.35 mCi/mmol; Amersham), and the enzyme fraction containing recombinant protein of P. falciparum (240 μg). After incubation at 37° C. for 1 hour, the reaction was terminated by the addition of 400 μl chloroform. Chloroform-soluble materials were extracted, dried, and then dissolved in chloroform/methanol (9:1, v/v). Phospholipids were separated by Thin Layer Chromatography as described above. The radioactive phospholipids were localized and identified using appropriate standards, and radioactivity was quantified using the phosphoimager analyzer (Molecular Dynamics).
# G25 inhibits the activity of recombinant P. falciparum PtdSer decarboxylase. […]
# [3] = system: de novo CDP-choline pathway (PtdCho synthesis from choline); test: Incorporation of labeled choline into PtdCho in P. falciparum-infected erythrocytes; type: cell-based, Plasmodium falciparum
# Method: FIG. 10A. […] 5-6×10^7 synchronized P. falciparum-infected erythrocytes (7% trophozoite stage) were pre-incubated at 4% haematocrit for 1 h in RPMI-based medium containing the indicated concentration of G25 before adding 30 μM [methyl-^3H]-choline (334 mCi/mmol). After incubation at 37° C. for 3 h, the cellular lipids were extracted and fractionated on TLC plates for quantification of radioactivity in PtdCho (black squares).
# as §1, with “incubation. Radioactive precursors were used as follows: 30 μM [methyl-^3H]-choline (334 mCi/mmol), 2 μM [^3H]-ethanolamine (2 Ci/mmol) and 10 μM [3-^14C]-serine (57 mCi/mmol). Following incubation with radiolabeled precursors, cells were concentrated by centrifugation at 1,200×g for 5 min at 4° C., washed twice and the cellular lipids were extracted by a mixture of chloroform/methanol (Folch, et al., 1957) and the organic phase was evaporated under air.” for “incubation.”, “medium. […]” for “medium.”
# [4] = system: de novo biosynthesis of PtdEtn from ethanolamine; test: Incorporation of radiolabeled ethanolamine into PtdEtn in P. falciparum-infected erythrocytes; type: cell-based, Plasmodium falciparum; settings: concentrations up to 100 μM
# Method: as §1, with “incubation. Radioactive precursors were used as follows: 30 μM [methyl-^3H]-choline (334 mCi/mmol), 2 μM [^3H]-ethanolamine (2 Ci/mmol) and 10 μM [3-^14C]-serine (57 mCi/mmol).” for “incubation.”, “medium. […]” for “medium.”
# [5] = system: P. falciparum and P. cynomolgi; settings: very low doses; cited from earlier work
structure (smiles),measurement,setting,value
"C[N+]1(CCCCCCCCCCCCCCCC[N+]2(C)CCCC2)CCCC1.[Br-].[Br-] [G25, 1,16-hexadecamethylenebis[N-methylpyrrolidinium]dibromide]",decrease in the pool of PtdEtn formed from PtdSer,[1]; 100 μM G25,77%
same,effect on first step of the CDP-DAG pathway catalyzed by PtdSer synthase,[1]; 100 μM G25,no effect
same,total incorporation of serine,[1]; increasing concentrations of G25,not affected
same,activity of recombinant PfPsd1,[2],steady decrease in the activity
same,inhibition of PtdCho biosynthesis,[3]; 1 μM G25,56%
same,inhibition of PtdCho biosynthesis,[3]; 10 μM G25,nearly complete inhibition
same,concentration causing a significant decrease of PtdCho biosynthesis,[3]; trophozoite-infected erythrocytes,higher than 0.1 μM
same,effect on incorporation of radiolabeled ethanolamine into PtdEtn,[4],no effect
same,malaria infection in monkeys,[5],cleared malaria infection
